Measurements: patent US10106508B2, “Quinazoline heterocyclic compound as EGFR kinase inhibitor and preparation and application thereof” (BEIJING SCITECH-MQ PHARMACEUTICALS LIMITED, priority 2015, dated 2018)

What was measured:
[1] = target: EGFR (WT) (Homo sapiens (Human), UniProt P00533); assay: Kinase-Glo luminescent kinase assay, EGFR tyrosine kinase inhibitory activity (WT); type: biochemical; conditions: EGFR wild type
Protocol: (§1) Determination of the Compound Inhibitory Activity Against EGFR Kinase
(§2) The inhibitory activity of compounds in formula (I) and (II) were determined using Kinase-Glo luminescent kinase assay. The receptor tyrosine kinase EGFR was tested and Gefitinib, a known EGFR inhibitor, was chosen as the positive control compound. The method is detailed below:
(§3) The sample compounds were dissolved in DMSO and diluted it to 500 μM concentration with DMSO and transferred to a dose plate. The compounds were serially diluted with DMSO in 5 fold concentration. Then each concentration was diluted 10-fold with the reaction buffer to get a 10× final concentration. Transfer the compounds with concentrations ranging from 0.003 μM to 50 μM to EGFR assay plate to determine their kinase activity with a dose of 1 μL/well.
(§4) The positive control compound Gifitinib was dissolved in DMSO as 10 mM stock solution and diluted it to 100 μM concentration with DMSO. The control compound was serially diluted with DMSO in 5 fold concentration. Then each concentration was diluted 10-fold with the reaction buffer to get a 10× final concentration.
(§5) For the HPE (hundred percent effect: No kinase and no compound, but containing ATP, substrate and 1% DMSO) and ZPE (zero percent effect: No compound but containing kinase, ATP, substrate and 1% DMSO) wells, dilute 2 μL DMSO 10-fold with reaction buffer to obtain 10% DMSO solution. Then transfer it to the assay plat, 1 μL/well. The positive control wells contain kinase, ATP, substrate and positive control compound in different concentrations. The sample compound wells contain kinase, ATP, substrate and the compounds to be tested in different concentrations.
(§6) Preparation of the reagents in need: 4×ATP: dilute ATP 4 times with assay buffer to obtain a working solution; 4× substrate: dilute Poly ([…]: tyrosine) 4 times with assay buffer to obtain a working solution; 2.5×EGFR kinase: dilute EGFR kinase 2.5 times with assay buffer to obtain a working solution.
(§7) Kinase reaction: Add 10× compounds to the assay plate in a 384-well plate layout, 1 μL/well. For the HPE and ZPE wells, equal volume (1 μL/well) of 10% DMSO was added to the 384-well assay plate; Add 2.5×EGFR kinase into the assay plate in 384-well plate layout, 4 μL/well. For HPE and ZPE wells, an equal volume (4 μL/well) of assay buffer was added to the 384-well assay plate; Centrifuge the assay plate with 1000 rpm for 1 min to mix them; Pre-incubate the assay plate for 30 min at 30° C.; Mix equal volume of 4×ATP and 4× substrate to obtain 2×ATP-substrate mixture which serves as a reaction mixture for the determination of EGFR activity; Add 2×ATP-substrate mixture to the assay plate, 5 μL/well; Centrifuge the assay plate at 1000 rpm for 1 min to mix them; Incubate the assay plate for one hour at 30° C.; Add Kinase glo plus was to each well (10 μL/well), and then incubated the assay plate for 20 min at 27° C.; Read luminescence signal with Envision plate reader.

[2] = target: EGFR (T790M) (Homo sapiens (Human), UniProt P00533, T790M); assay: Kinase-Glo luminescent kinase assay, EGFR tyrosine kinase inhibitory activity (T790M); type: biochemical
Protocol: as §1, §2, §3, §4, §5, §6, §7

EGFR (WT), sequence (P00533 25-1210): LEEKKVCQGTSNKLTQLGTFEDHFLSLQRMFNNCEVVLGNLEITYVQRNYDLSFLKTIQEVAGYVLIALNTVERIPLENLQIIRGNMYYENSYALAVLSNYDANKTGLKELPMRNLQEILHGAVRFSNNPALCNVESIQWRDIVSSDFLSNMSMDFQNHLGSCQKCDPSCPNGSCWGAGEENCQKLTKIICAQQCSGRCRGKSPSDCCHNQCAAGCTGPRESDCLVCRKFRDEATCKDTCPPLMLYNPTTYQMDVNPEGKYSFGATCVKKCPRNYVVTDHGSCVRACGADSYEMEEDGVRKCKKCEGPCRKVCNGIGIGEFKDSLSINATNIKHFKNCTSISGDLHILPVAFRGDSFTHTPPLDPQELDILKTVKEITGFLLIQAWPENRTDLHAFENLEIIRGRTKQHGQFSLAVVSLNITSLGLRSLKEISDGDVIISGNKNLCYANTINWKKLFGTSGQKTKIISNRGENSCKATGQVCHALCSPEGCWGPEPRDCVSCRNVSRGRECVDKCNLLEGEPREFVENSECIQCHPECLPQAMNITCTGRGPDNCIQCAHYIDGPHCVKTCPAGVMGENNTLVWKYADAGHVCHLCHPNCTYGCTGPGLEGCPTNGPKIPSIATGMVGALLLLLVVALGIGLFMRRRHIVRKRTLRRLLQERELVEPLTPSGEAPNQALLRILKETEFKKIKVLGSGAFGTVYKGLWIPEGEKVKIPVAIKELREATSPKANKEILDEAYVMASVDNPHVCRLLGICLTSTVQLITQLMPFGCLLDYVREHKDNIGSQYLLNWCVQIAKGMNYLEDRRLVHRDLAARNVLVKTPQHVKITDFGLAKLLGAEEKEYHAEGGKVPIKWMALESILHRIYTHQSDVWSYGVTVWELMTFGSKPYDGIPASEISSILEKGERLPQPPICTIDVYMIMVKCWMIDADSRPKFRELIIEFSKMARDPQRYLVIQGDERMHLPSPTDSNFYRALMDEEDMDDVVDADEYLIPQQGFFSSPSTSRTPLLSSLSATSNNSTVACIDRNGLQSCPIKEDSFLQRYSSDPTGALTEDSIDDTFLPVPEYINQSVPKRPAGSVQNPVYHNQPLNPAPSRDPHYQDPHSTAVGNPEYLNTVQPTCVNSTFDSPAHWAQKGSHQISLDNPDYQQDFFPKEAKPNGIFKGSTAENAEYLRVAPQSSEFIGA
EGFR (T790M), sequence (P00533 25-1210 T790M): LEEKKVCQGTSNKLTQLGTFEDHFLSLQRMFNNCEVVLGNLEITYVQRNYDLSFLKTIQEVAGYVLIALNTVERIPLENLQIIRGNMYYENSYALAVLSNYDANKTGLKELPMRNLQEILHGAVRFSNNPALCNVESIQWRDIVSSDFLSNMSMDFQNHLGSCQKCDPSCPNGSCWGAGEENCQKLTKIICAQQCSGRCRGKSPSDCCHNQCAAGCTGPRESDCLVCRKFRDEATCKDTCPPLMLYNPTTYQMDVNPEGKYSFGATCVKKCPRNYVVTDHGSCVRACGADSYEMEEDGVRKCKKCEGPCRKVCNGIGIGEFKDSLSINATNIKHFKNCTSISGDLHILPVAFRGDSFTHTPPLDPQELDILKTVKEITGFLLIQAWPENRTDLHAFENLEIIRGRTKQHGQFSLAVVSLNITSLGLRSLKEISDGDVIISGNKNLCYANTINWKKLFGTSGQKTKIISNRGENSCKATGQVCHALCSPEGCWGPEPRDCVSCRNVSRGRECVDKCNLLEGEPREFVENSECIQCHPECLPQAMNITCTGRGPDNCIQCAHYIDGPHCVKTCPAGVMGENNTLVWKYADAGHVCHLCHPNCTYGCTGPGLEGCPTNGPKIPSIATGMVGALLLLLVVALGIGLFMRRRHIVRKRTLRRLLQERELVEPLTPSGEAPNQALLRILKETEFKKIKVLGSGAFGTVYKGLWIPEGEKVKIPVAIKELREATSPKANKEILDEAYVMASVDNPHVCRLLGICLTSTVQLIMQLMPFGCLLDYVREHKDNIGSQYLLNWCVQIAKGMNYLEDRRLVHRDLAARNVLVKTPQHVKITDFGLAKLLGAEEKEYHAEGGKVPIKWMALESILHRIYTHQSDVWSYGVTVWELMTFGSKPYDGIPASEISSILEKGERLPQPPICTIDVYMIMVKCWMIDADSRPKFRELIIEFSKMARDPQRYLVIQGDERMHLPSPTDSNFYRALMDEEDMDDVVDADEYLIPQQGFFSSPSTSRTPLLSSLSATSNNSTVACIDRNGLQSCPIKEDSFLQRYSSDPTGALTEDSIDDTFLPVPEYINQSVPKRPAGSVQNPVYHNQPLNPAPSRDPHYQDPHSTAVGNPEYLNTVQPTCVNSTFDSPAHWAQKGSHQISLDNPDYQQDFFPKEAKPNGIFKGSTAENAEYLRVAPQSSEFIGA

| Structure (SMILES) | IC50 [1] | IC50 [2] |
| --- | --- | --- |
| COc1ccc(Nc2ncnc3cc(OC(C)C)c4c(c23)OCCO4)cc1[N+](=O)[O-] [Compound I-1, 5-Isopropoxy-N-(4-methoxy-3-nitrophenyl)-2,3-dihydro-[1,4]dioxino[2,3-f]quinazolin-10-amine] | < 1000 nM | < 1000 nM |
| CC(C)Oc1cc2ncnc(Nc3ccc(F)c([N+](=O)[O-])c3)c2c2c1OCCO2 [Compound I-2, N-(4-Fluoro-3-nitrophenyl)-5-isopropoxy-2,3-dihydro-[1,4]dioxino[2,3-f]quinazolin-10-amine] | < 100 nM | < 1000 nM |
| Cc1ccc(Nc2ncnc3cc(OC(C)C)c4c(c23)OCCO4)cc1[N+](=O)[O-] [Compound I-3, 5-Isopropoxy-N-(4-methyl-3-nitrophenyl)-2,3-dihydro-[1,4]dioxino[2,3-f]quinazolin-10-amine] | < 200 nM | < 1000 nM |
| CC(C)Oc1cc2ncnc(Nc3ccc(Cl)c([N+](=O)[O-])c3)c2c2c1OCCO2 [Compound I-4, N-(4-Chloro-3-nitrophenyl)-5-isopropoxy-2,3-dihydro-[1,4]dioxino[2,3-f]quinazolin-10-amine] | < 100 nM | < 1000 nM |
| CC(C)Oc1cc2ncnc(Nc3ccc(F)c(C#N)c3)c2c2c1OCCO2 [Compound I-5, 2-Fluoro-5-((5-isopropoxy-2,3-dihydro-[1,4]dioxino[2,3-f]quinazolin-10-yl)amino)benzonitrile] | < 300 nM | < 1000 nM |
| Cc1ccc(Nc2ncnc3cc(OC(C)C)c4c(c23)OCCO4)cc1C#N [Compound I-6, 5-((5-Isopropoxy-2,3-dihydro-[1,4]dioxino[2,3-f]quinazolin-10-yl)amino)-2-methylbenzonitrile] | < 400 nM | < 1000 nM |
| COCCOc1cc2ncnc(Nc3ccc(OC)c([N+](=O)[O-])c3)c2c2c1OCCO2 [Compound I-9, N-(4-Methoxy-3-nitrophenyl)-5-(2-methoxyethoxy)-2,3-dihydro-[1,4]dioxino[2,3-f]quinazolin-10-amine] | < 1000 nM | < 1000 nM |
| COCCOc1cc2ncnc(Nc3ccc(C)c([N+](=O)[O-])c3)c2c2c1OCCO2 [Compound I-11, 5-(2-Methoxyethoxy)-N-(4-methyl-3-nitrophenyl)-2,3-dihydro-[1,4]dioxino[2,3-f]quinazolin-10-amine] | < 100 nM | < 1000 nM |
| COCCOc1cc2ncnc(Nc3ccc(Cl)c([N+](=O)[O-])c3)c2c2c1OCCO2 [Compound I-12, N-(4-Chloro-3-nitrophenyl)-5-(2-methoxyethoxy)-2,3-dihydro-[1,4]dioxino[2,3-f]quinazolin-10-amine] | < 50 nM | < 1000 nM |
| COCCOc1cc2ncnc(Nc3ccc(F)c(C#N)c3)c2c2c1OCCO2 [Compound I-13, 2-Fluoro-5-((5-(2-methoxyethoxy)-2,3-dihydro-[1,4]dioxino[2,3-f]quinazolin-10-yl)amino)benzonitrile] | < 500 nM | < 1000 nM |
| COCCOc1cc2ncnc(Nc3ccc(C)c(C#N)c3)c2c2c1OCCO2 [Compound I-14, 5-((5-(2-Methoxyethoxy)-2,3-dihydro-[1,4]dioxino[2,3-f]quinazolin-10-yl)amino)-2-methylbenzonitrile] | < 1000 nM | < 1000 nM |
| CCOC(C)Oc1cc2ncnc(Nc3ccc(OC)c([N+](=O)[O-])c3)c2c2c1OCCO2 (stereo not drawn) [Compound I-15, 5-(1-Ethoxyethoxy)-N-(4-methoxy-3-nitrophenyl)-2,3-dihydro-[1,4]dioxino[2,3-f]quinazolin-10-amine] | < 1000 nM | < 1000 nM |
| CCOC(C)Oc1cc2ncnc(Nc3ccc(Cl)c([N+](=O)[O-])c3)c2c2c1OCCO2 (stereo not drawn) [Compound I-17, N-(4-Chloro-3-nitrophenyl)-5-(1-ethoxyethoxy)-2,3-dihydro-[1,4]dioxino[2,3-f]quinazolin-10-amine] | < 300 nM | < 1000 nM |
| CCOC(C)Oc1cc2ncnc(Nc3ccc(C)c([N+](=O)[O-])c3)c2c2c1OCCO2 (stereo not drawn) [Compound I-18, 5-(1-Ethoxyethoxy)-N-(4-methyl-3-nitrophenyl)-2,3-dihydro-[1,4]dioxino[2,3-f]quinazolin-10-amine] | < 300 nM | < 1000 nM |
| CCOC(C)Oc1cc2ncnc(Nc3ccc(F)c(C#N)c3)c2c2c1OCCO2 (stereo not drawn) [Compound I-19, 5-((5-(1-Ethoxyethoxy)-2,3-dihydro-[1,4]dioxino[2,3-f]quinazolin-10-yl)amino)-2-fluoro-benzonitrile] | < 300 nM | < 1000 nM |
| CCOC(C)Oc1cc2ncnc(Nc3ccc(C)c(C#N)c3)c2c2c1OCCO2 (stereo not drawn) [Compound I-20, 5-((5-(1-Ethoxyethoxy)-2,3-dihydro-[1,4]dioxino[2,3-f]quinazolin-10-yl)amino)-2-methylbenzonitrile] | < 1000 nM | < 1000 nM |
| C#Cc1cccc(Nc2ncnc3cc(OC(C)COC)c4c(c23)OCCO4)c1 (stereo not drawn) [Compound I-26, N-(3-Ethynylphenyl)-5-(1-methoxypropan-2-yloxy)-2,3-dihydro-[1,4]dioxino[2,3-f]quinazolin-10-amine] | < 100 nM | < 300 nM |
| CC(C)Oc1cc2ncnc(Nc3ccc(OCc4cccc(F)c4)c(Cl)c3)c2c2c1OCCO2 [Compound I-27, N-(3-Chloro-4-((3-fluorobenzyl)oxy)phenyl)-5-isopropoxy-2,3-dihydro-[1,4]dioxino[2,3-f]quinazolin-10-amine] | < 200 nM | < 1000 nM |
| C#Cc1cccc(Nc2ncnc3cc(OC)c4c(c23)OCCO4)c1 [Compound I-28, N-(3-Ethynylphenyl)-5-methoxy-2,3-dihydro-[1,4]dioxino[2,3-f]quinazolin-10-amine] | < 50 nM | < 1000 nM |
| COc1cc2ncnc(Nc3ccc(F)c(Cl)c3)c2c2c1OCCO2 [Compound I-29, N-(3-Chloro-4-fluorophenyl)-5-methoxy-2,3-dihydro-[1,4]dioxino[2,3-f]quinazolin-10-amine] | < 50 nM | < 1000 nM |
| C#Cc1cccc(Nc2ncnc3cc(OCCOC)c4c(c23)OCCO4)c1 [Compound I-31, N-(3-Ethynylphenyl)-5-(2-methoxyethoxy)-2,3-dihydro-[1,4]dioxino[2,3-f]quinazolin-10-amine] | < 50 nM | < 50 nM |
| COCCOc1cc2ncnc(Nc3ccc(F)cc3)c2c2c1OCCO2 [Compound I-32, N-(4-fluorophenyl)-5-(2-methoxyethoxy)-2,3-dihydro-[1,4]dioxino[2,3-f]quinazolin-10-amine] | < 200 nM | < 1000 nM |
| CCOc1cc2ncnc(Nc3cccc([N+](=O)[O-])c3)c2c2c1OCCO2 [Compound I-38, 5-Ethoxy-N-(3-nitrophenyl)-2,3-dihydro-[1,4]dioxino[2,3-f]quinazolin-10-amine] | < 50 nM | < 50 nM |
| Fc1ccc(Nc2ncnc3cc(OCC4CCCO4)c4c(c23)OCCO4)cc1Cl (stereo not drawn) [Compound I-40, N-(3-Chloro-4-fluorophenyl)-5-((tetrahydrofuran-2-yl)methoxy)-2,3-dihydro-[1,4]dioxino[2,3-f]quinazolin-10-amine] | < 50 nM | < 1000 nM |
| Cc1ccc(Nc2ncnc3cc4c(cc23)N(CCCN2CCOCC2)C(=O)CO4)cc1Cl [II-3, 4-((3-Chloro-4-methylphenyl)amino)-6-(3-morpholinopropyl)[1,4]oxazino[3,2-g]quinazolin-7(8H)-one] | < 200 nM | < 1000 nM |
| COc1cccc(Nc2ncnc3cc4c(cc23)N(CCCN2CCOCC2)C(=O)CO4)c1 [II-4, 4-((3-Methoxyphenyl)amino)-6-(3-morpholinopropyl)-6H-[1,4]oxazino[3,2-g]quinazolin-7(8H)-one] | < 200 nM | < 1000 nM |
| COc1ccc(Nc2ncnc3cc4c(cc23)N(CCCN2CCOCC2)C(=O)CO4)cc1OC [II-5, 4-((3,4-Dimethoxyphenyl)amino)-6-(3-morpholinopropyl)-6H-[1,4]oxazino[3,2-g]quinazolin-7(8H)-one] | < 200 nM | < 1000 nM |
